Reference: the NIST ThermoML archive (doi:10.1021/je050050p)
Numbers after ± are expanded uncertainties.

Experiment: xn = mol fraction of the nth substance listed
Settings: Liquid, Vibrating tube method

SMILES: CN(C)C=O [dimethylformamide] + O=C=O
- mass density (323.07 K, 21005 kPa, x2 = 0.6235): 955.83 ± 0.41 kg/m3
- mass density (323.07 K, 22029 kPa, x2 = 0.6235): 957.78 ± 0.41 kg/m3
- mass density (323.07 K, 23012 kPa, x2 = 0.6235): 959.63 ± 0.41 kg/m3
- mass density (323.07 K, 24020 kPa, x2 = 0.6235): 961.47 ± 0.41 kg/m3
- mass density (323.07 K, 24979 kPa, x2 = 0.6235): 963.24 ± 0.41 kg/m3
- mass density (323.08 K, 11047 kPa, x2 = 0.8091): 888.99 ± 0.43 kg/m3
- mass density (323.08 K, 12004 kPa, x2 = 0.8091): 893.47 ± 0.44 kg/m3
- mass density (323.08 K, 13042 kPa, x2 = 0.8091): 898.2 ± 0.43 kg/m3
- mass density (323.08 K, 14006 kPa, x2 = 0.8091): 902.33 ± 0.43 kg/m3
- mass density (323.08 K, 15005 kPa, x2 = 0.8091): 906.31 ± 0.43 kg/m3
- mass density (323.08 K, 16016 kPa, x2 = 0.8091): 910.13 ± 0.43 kg/m3
- mass density (323.08 K, 16989 kPa, x2 = 0.8091): 913.66 ± 0.43 kg/m3
- mass density (323.08 K, 18023 kPa, x2 = 0.8091): 917.28 ± 0.43 kg/m3
- mass density (323.08 K, 18997 kPa, x2 = 0.8091): 920.57 ± 0.42 kg/m3
- mass density (323.08 K, 20018 kPa, x2 = 0.8091): 923.89 ± 0.42 kg/m3
- mass density (323.08 K, 21002 kPa, x2 = 0.8091): 927.01 ± 0.42 kg/m3
- mass density (323.08 K, 22041 kPa, x2 = 0.8091): 930.23 ± 0.42 kg/m3
- mass density (323.08 K, 22980 kPa, x2 = 0.8091): 933.13 ± 0.42 kg/m3
- mass density (323.08 K, 23989 kPa, x2 = 0.8091): 936 ± 0.42 kg/m3
- mass density (323.08 K, 25049 kPa, x2 = 0.8091): 939.12 ± 0.42 kg/m3
- mass density (323.09 K, 7005 kPa, x2 = 0.4268): 942.62 ± 0.41 kg/m3
- mass density (323.09 K, 7062 kPa, x2 = 0.4461): 942.94 ± 0.41 kg/m3
- mass density (323.09 K, 7958 kPa, x2 = 0.4461): 944.11 ± 0.41 kg/m3
- mass density (323.09 K, 8007 kPa, x2 = 0.4268): 943.86 ± 0.41 kg/m3
- mass density (323.09 K, 9005 kPa, x2 = 0.4268): 944.97 ± 0.41 kg/m3
- mass density (323.09 K, 9022 kPa, x2 = 0.4461): 945.39 ± 0.41 kg/m3
- mass density (323.09 K, 9996 kPa, x2 = 0.4268): 946.2 ± 0.41 kg/m3
- mass density (323.09 K, 9998 kPa, x2 = 0.4461): 946.6 ± 0.41 kg/m3
- mass density (323.09 K, 11005 kPa, x2 = 0.4461): 947.83 ± 0.41 kg/m3
- mass density (323.09 K, 11020 kPa, x2 = 0.4268): 947.43 ± 0.41 kg/m3
- mass density (323.09 K, 12000 kPa, x2 = 0.4268): 948.52 ± 0.41 kg/m3
- mass density (323.09 K, 12017 kPa, x2 = 0.9311): 797.65 ± 0.5 kg/m3
- mass density (323.09 K, 12039 kPa, x2 = 0.4461): 949.09 ± 0.41 kg/m3
- mass density (323.09 K, 13002 kPa, x2 = 0.4461): 950.23 ± 0.41 kg/m3
- mass density (323.09 K, 13010 kPa, x2 = 0.9311): 810.33 ± 0.49 kg/m3
- mass density (323.09 K, 13035 kPa, x2 = 0.4268): 949.74 ± 0.41 kg/m3
- mass density (323.09 K, 14007 kPa, x2 = 0.4268): 950.83 ± 0.41 kg/m3
- mass density (323.09 K, 14007 kPa, x2 = 0.4461): 951.42 ± 0.41 kg/m3
- mass density (323.09 K, 14016 kPa, x2 = 0.9311): 821.48 ± 0.48 kg/m3
- mass density (323.09 K, 14996 kPa, x2 = 0.4461): 952.54 ± 0.41 kg/m3
- mass density (323.09 K, 15005 kPa, x2 = 0.9311): 831.25 ± 0.47 kg/m3
- mass density (323.09 K, 15007 kPa, x2 = 0.4268): 951.95 ± 0.41 kg/m3
- mass density (323.09 K, 15987 kPa, x2 = 0.4268): 952.99 ± 0.41 kg/m3
- mass density (323.09 K, 16001 kPa, x2 = 0.4461): 953.67 ± 0.41 kg/m3
- mass density (323.09 K, 16036 kPa, x2 = 0.9311): 840.41 ± 0.47 kg/m3
- mass density (323.09 K, 16984 kPa, x2 = 0.4268): 954.11 ± 0.41 kg/m3
- mass density (323.09 K, 17004 kPa, x2 = 0.4461): 954.83 ± 0.41 kg/m3
- mass density (323.09 K, 17025 kPa, x2 = 0.9311): 848.46 ± 0.46 kg/m3
- mass density (323.09 K, 17998 kPa, x2 = 0.4268): 955.17 ± 0.41 kg/m3
- mass density (323.09 K, 18000 kPa, x2 = 0.4461): 955.98 ± 0.41 kg/m3
- mass density (323.09 K, 18021 kPa, x2 = 0.9311): 855.96 ± 0.46 kg/m3
- mass density (323.09 K, 18994 kPa, x2 = 0.4461): 957.05 ± 0.41 kg/m3
- mass density (323.09 K, 19034 kPa, x2 = 0.9311): 863.06 ± 0.45 kg/m3
- mass density (323.09 K, 19040 kPa, x2 = 0.4268): 956.31 ± 0.41 kg/m3
- mass density (323.09 K, 20010 kPa, x2 = 0.9311): 869.5 ± 0.45 kg/m3
- mass density (323.09 K, 20031 kPa, x2 = 0.4461): 958.19 ± 0.41 kg/m3
- mass density (323.09 K, 20050 kPa, x2 = 0.4268): 957.38 ± 0.41 kg/m3
- mass density (323.09 K, 21020 kPa, x2 = 0.4461): 959.24 ± 0.41 kg/m3
- mass density (323.09 K, 21029 kPa, x2 = 0.9311): 875.82 ± 0.45 kg/m3
- mass density (323.09 K, 21048 kPa, x2 = 0.4268): 958.44 ± 0.41 kg/m3
- mass density (323.09 K, 22009 kPa, x2 = 0.9311): 881.6 ± 0.45 kg/m3
- mass density (323.09 K, 22029 kPa, x2 = 0.4461): 960.34 ± 0.41 kg/m3
- mass density (323.09 K, 22041 kPa, x2 = 0.4268): 959.46 ± 0.41 kg/m3
- mass density (323.09 K, 23008 kPa, x2 = 0.4461): 961.38 ± 0.41 kg/m3
- mass density (323.09 K, 23037 kPa, x2 = 0.4268): 960.49 ± 0.41 kg/m3
- mass density (323.09 K, 23050 kPa, x2 = 0.9311): 887.36 ± 0.44 kg/m3
- mass density (323.09 K, 23995 kPa, x2 = 0.9311): 892.39 ± 0.44 kg/m3
- mass density (323.09 K, 24019 kPa, x2 = 0.4461): 962.44 ± 0.41 kg/m3
- mass density (323.09 K, 24061 kPa, x2 = 0.4268): 961.52 ± 0.41 kg/m3
- mass density (323.09 K, 25007 kPa, x2 = 0.4461): 963.48 ± 0.41 kg/m3
- mass density (323.09 K, 25036 kPa, x2 = 0.4268): 962.52 ± 0.41 kg/m3
- mass density (323.09 K, 25056 kPa, x2 = 0.9311): 897.78 ± 0.44 kg/m3
- mass density (323.1 K, 7005 kPa, x2 = 0.4502): 942.87 ± 0.41 kg/m3
- mass density (323.1 K, 7058 kPa, x2 = 0.4068): 942.59 ± 0.41 kg/m3
- mass density (323.1 K, 8007 kPa, x2 = 0.4068): 943.65 ± 0.41 kg/m3
- mass density (323.1 K, 8009 kPa, x2 = 0.4502): 944.1 ± 0.41 kg/m3
- mass density (323.1 K, 9003 kPa, x2 = 0.4502): 945.32 ± 0.41 kg/m3
- mass density (323.1 K, 9034 kPa, x2 = 0.4068): 944.82 ± 0.41 kg/m3
- mass density (323.1 K, 10001 kPa, x2 = 0.4068): 945.91 ± 0.41 kg/m3
- mass density (323.1 K, 10005 kPa, x2 = 0.4502): 946.57 ± 0.41 kg/m3
- mass density (323.1 K, 11002 kPa, x2 = 0.4502): 947.78 ± 0.41 kg/m3
- mass density (323.1 K, 11013 kPa, x2 = 0.4068): 947.04 ± 0.41 kg/m3
- mass density (323.1 K, 12000 kPa, x2 = 0.4068): 948.11 ± 0.41 kg/m3
